From patent publication US12606544B2, “JAK1 selective kinase inhibitor” (DIZAL (JIANGSU) PHARMACEUTICAL CO., LTD., priority 2019, dated 2026)
Read-outs that look alike come from different tables or passages of the source.

How the values were obtained:
phosphorylation of STAT6 = test: Cellular p-STAT6 assay, IL-13 stimulated THP-1 cells, flow cytometry; type: cell-based; details: IL-13 10 ng/ml, read-out: pSTAT6 IC50
Method: To detect phosphorylated STAT6 (pSTAT6), THP-1 cells were harvested by centrifugation at 250 g for 5 min and resuspended in assay medium (RPMI1640+10% FBS) to 2×10^5 cells/well. Test compounds were applied to assay plates in serial dilution from 1 μM to 0.3 nM in DMSO. THP-1 cells were incubated with serial diluted compounds for 60 min at room temperature, followed by stimulation of interleukin (IL-13, 10 ng/ml) for 30 min, fixed in Cytofix buffer (BD Biosciences), and permeabilized in 90% methanol on ice. PE anti-pSTAT6 (BD Biosciences) antibodies were stained for 60 min at room temperature before being analyzed by flow cytometry. In the assay the compounds were thus diluted and dose-response curves for inhibition of the signal determine the IC50 for the compounds.

TYK2 = molecular target: T1, TYK2 (Homo sapiens, UniProt P29597); test: Lance Ultra Kinase Assay, recombinant TYK2; type: biochemical; details: 5 mM ATP
T1 construct: purchased Carna Biosciences
Method: (§1) Recombinant JAK1, JAK2, JAK3 and TYK2 purchased from Carna Biosciences. The inhibition potency of compounds against JAK1, JAK2, JAK3 and TYK2 was assessed using Lance Ultra Kinase Assay.
(§2) In brief, recombinant kinases were pre-incubated in the presence or absence of compound at room temperature for 15 minutes. The reaction was initiated by the addition of 5 mM ATP and substrate peptide which could be phosphorylated by kinases in the reaction. After 60 minutes incubation, the reaction was stopped by the addition of the detection reagent mix containing EDTA. The fluorescence was measured at 615 nm and 665 nm, respectively with excitation wavelength at 320 nm. The calculated signal ratio of 665 nm/615 nm is proportional to the kinase activity.

JAK1 = molecular target: T2, JAK1 (Homo sapiens, UniProt P23458); test: Lance Ultra Kinase Assay, recombinant JAK1; type: biochemical; details: 5 mM ATP
T2 construct: purchased Carna Biosciences
Method: as §1, §2

[1] = Metabolic stability in rat hepatocytes; type: in vitro ADME; details: 1 μM compound, male rat hepatocytes
Method: (§3) Rat hepatocytes in male gender and human liver microsome were obtained from commercial vendors (e.g., BioreclamationIVT) and stored at −150° C. prior to use.
For metabolic stability assay with rat heptatocytes, vials of cryopreserved hepatocytes or microsome were removed from storage, ensured that vials remain at cryogenic temperatures. 1 μM of each test compound (in Acetonitrile; 0.01% DMSO) was incubated with 250 μL of hepatocyte cells (1×10^6 cells/ml) in a 96 deep well plate. […] 40 μL of supernatant was diluted to 200 μL with pure water and analyzed using LC-MS/MS.
In vitro hepatocyte clearance was estimated based on determination of elimination half-life (T1/2) of compounds disappearance from their initial concentrations. Peak area ratios of each compound (test or control) to IS was calculated. Ln (% Control) versus Incubation Time (min) curve was plotted, and the slope of a linear fitting line was calculated. Drug elimination rate constant k (min−1), T1/2 (min), and in vitro intrinsic clearance CLint (μL/min/E6) was calculated according to the following equations: k=−slope T1/2=0.693/k CLint=k/Chep Where Chep (cells×μL^−1) is the cell concentration in the incubation system.

JAK3 = molecular target: T3, JAK3 (Homo sapiens, UniProt P52333); test: Lance Ultra Kinase Assay, recombinant JAK3; type: biochemical; details: 5 mM ATP
T3 construct: purchased Carna Biosciences
T3 sequence (P52333 1-1124): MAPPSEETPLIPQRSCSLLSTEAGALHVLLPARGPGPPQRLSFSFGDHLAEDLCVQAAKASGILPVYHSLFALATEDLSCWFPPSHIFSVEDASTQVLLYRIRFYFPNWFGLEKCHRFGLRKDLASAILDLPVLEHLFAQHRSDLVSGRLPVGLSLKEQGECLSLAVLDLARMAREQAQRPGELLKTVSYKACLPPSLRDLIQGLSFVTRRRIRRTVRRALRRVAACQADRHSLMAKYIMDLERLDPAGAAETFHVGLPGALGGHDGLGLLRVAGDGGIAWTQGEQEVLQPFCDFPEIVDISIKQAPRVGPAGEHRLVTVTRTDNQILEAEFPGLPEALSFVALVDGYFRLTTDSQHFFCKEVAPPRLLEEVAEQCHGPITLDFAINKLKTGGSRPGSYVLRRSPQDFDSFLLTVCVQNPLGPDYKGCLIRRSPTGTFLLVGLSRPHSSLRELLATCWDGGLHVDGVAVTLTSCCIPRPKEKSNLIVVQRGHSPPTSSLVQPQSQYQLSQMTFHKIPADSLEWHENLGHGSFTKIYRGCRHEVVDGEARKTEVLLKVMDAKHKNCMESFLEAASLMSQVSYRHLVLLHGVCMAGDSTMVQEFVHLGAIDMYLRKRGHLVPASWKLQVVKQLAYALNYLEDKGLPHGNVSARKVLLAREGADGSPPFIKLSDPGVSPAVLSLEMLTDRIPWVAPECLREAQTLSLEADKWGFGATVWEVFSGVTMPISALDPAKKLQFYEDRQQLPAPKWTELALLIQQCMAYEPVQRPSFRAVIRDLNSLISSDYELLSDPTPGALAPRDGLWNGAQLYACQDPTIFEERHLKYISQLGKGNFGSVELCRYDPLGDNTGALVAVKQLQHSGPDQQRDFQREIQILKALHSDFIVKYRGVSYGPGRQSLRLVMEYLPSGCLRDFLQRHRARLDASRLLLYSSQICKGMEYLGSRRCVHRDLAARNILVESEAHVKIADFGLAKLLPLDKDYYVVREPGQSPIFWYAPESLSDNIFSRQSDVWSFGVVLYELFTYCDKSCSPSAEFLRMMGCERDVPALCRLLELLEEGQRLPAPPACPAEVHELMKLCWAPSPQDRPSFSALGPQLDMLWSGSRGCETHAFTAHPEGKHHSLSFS
Method: as §1, §2

[2] = Metabolic stability in human liver microsome; type: in vitro ADME; details: 1 mg/mL microsomes, NADPH; for microsomal CLint at 1 μM: human, pooled human liver microsomes, pH 7.4, 1 μM compound
Method: as §3
For metabolic stability assay with human liver microsome, 1 μM of each test compound was incubated with 1 mg/mL of microsomes (Pooled HLM with 20 mg/ml protein cone) at 37° C. in 250 μL of buffer (100 mM phosphate buffer, pH-7.4) containing 1 mM NADPH solution. […] was quenched with 5 volumes chilled acetonitrile at different time points 0, 0.5, 5, 10, 15, 20 and 30 min in a fresh 96 well plate. The quench plate was centrifuged at 4000 rpm for 15 min. 40 μL of supernatant was diluted to 200 μL with pure water and analyzed using LC-MS/MS. […]

JAK2 = molecular target: T4, JAK2 (Homo sapiens, UniProt O60674); test: Lance Ultra Kinase Assay, recombinant JAK2; type: biochemical; details: 5 mM ATP
T4 construct: purchased Carna Biosciences
Method: as §1, §2

[3] = Homo sapiens, THP-1, THP-1 cells

T4 sequence (O60674 whole entry): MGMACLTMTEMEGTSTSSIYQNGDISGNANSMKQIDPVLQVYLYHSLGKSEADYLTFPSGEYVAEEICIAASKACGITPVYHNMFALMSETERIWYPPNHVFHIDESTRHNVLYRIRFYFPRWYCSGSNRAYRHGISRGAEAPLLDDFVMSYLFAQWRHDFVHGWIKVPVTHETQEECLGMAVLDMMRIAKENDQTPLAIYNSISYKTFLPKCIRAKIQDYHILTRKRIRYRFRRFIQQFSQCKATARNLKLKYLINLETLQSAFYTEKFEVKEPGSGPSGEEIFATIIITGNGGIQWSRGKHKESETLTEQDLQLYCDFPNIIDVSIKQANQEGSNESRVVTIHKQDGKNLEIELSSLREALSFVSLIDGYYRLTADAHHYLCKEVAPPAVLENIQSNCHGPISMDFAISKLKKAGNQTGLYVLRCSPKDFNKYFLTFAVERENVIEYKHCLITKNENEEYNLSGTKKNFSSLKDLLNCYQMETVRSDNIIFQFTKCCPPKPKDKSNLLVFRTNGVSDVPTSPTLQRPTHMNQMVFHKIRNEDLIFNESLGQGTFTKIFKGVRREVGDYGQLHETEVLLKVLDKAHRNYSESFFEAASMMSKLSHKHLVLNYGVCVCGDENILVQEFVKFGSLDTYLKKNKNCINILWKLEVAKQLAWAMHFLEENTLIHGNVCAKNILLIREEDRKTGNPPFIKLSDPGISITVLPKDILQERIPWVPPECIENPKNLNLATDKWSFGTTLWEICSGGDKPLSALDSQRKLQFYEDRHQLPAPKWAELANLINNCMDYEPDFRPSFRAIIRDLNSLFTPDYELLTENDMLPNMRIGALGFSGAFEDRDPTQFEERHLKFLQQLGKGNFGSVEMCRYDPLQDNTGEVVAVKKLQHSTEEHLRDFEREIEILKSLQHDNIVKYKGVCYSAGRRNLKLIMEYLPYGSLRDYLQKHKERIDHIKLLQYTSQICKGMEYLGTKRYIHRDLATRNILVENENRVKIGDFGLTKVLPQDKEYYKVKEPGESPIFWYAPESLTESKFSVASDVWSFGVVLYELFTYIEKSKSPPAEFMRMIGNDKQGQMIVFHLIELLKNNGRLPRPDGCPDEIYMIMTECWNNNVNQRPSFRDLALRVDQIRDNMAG
T1 sequence (P29597 whole entry): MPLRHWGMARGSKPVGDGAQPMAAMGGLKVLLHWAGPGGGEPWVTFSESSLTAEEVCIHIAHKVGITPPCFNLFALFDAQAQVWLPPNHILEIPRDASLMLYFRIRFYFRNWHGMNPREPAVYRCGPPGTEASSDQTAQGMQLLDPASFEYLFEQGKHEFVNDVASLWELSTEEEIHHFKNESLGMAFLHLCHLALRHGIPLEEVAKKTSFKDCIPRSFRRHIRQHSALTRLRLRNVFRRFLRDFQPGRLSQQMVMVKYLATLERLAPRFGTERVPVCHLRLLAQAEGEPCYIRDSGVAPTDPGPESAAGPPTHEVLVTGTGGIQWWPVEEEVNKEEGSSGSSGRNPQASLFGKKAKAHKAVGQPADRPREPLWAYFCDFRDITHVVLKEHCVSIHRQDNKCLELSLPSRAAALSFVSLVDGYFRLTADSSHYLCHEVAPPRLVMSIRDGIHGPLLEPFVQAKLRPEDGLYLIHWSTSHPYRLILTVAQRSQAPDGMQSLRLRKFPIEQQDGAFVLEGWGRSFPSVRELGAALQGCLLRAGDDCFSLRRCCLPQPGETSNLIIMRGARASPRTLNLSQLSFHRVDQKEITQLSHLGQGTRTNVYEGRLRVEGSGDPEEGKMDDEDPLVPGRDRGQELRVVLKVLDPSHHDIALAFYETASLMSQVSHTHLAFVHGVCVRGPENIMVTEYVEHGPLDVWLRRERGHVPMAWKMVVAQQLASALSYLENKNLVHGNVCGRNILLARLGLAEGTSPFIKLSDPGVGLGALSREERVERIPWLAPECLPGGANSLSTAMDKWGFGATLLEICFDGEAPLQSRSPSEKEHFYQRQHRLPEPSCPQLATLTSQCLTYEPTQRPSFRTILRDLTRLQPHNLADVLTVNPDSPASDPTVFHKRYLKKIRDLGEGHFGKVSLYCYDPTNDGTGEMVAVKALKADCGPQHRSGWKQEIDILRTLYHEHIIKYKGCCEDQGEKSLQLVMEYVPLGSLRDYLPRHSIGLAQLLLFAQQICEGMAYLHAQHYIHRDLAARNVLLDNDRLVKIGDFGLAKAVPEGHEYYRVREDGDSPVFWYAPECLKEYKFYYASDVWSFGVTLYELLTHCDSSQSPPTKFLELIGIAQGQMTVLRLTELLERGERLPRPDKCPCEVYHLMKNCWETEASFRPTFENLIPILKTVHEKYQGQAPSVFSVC
T2 sequence (P23458 whole entry): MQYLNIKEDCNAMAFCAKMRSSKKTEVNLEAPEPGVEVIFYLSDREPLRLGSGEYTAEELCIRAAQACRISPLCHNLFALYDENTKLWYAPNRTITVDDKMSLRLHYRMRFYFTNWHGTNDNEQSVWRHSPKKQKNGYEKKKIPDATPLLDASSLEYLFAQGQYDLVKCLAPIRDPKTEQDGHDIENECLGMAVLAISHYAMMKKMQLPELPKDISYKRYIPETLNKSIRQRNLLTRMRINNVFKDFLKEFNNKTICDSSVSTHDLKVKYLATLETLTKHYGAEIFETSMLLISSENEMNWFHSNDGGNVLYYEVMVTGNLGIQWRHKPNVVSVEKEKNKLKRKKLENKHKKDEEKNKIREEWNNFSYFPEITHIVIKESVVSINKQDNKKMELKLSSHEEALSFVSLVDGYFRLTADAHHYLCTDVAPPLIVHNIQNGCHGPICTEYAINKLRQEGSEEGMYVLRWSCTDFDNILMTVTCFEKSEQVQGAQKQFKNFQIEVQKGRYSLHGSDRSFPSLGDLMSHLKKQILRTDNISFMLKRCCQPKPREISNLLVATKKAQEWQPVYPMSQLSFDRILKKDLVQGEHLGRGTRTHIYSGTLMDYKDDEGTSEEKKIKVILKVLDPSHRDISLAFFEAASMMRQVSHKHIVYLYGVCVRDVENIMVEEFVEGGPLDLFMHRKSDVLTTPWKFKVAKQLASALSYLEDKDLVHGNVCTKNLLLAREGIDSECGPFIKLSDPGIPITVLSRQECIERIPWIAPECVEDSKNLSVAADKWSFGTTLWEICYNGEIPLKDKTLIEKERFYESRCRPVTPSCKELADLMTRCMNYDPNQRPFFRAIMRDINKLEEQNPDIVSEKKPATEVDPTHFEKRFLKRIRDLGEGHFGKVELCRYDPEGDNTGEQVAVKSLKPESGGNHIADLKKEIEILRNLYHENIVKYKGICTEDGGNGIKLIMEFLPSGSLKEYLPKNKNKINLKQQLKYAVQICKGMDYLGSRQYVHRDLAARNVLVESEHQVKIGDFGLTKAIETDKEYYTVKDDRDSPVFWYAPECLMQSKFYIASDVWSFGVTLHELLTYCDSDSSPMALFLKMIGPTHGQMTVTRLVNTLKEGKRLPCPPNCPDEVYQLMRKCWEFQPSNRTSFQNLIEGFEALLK

| IC50 (phosphorylation of STAT6; [3]) [µM] | IC50 (TYK2) [µM] | IC50 (JAK1) [µM] | Rat Hepatocyte CLint [1] [μL/min/10^6 cells] | IC50 (JAK3) [µM] | microsomal CLint at 1 μM [2] [µL/min/mg] | IC50 (JAK2) [µM] | IC50 (phosphorylation of STAT6; THP-1 cells) [µM] | Human liver microsome CLint ([2]; 1 μM compound) [µL/min/mg] | Compound |
| --- | --- | --- | --- | --- | --- | --- | --- | --- | --- |
| 0.0103 | 1.18 | 0.00015 | 4.4 | > 10 | 13.5 | 0.095 |  |  | COC[C@H](C(=O)Nc1cccc2c(-c3nc(Nc4cnn(C5CCOC5)c4)ncc3F)c[nH]c12)N1CCN(C)CC1 (single isomer, unassigned; isomer 1) [Example 30] |
|  | 2.17 | 0.00014 | 6.8 | > 10 |  | 0.11 | 0.0111 | 11.1 | COC[C@H](C(=O)Nc1cccc2c(-c3nc(Nc4cnn(C5CCOC5)c4)ncc3F)c[nH]c12)N1CCN(C)CC1 (single isomer, unassigned; isomer 2) [Example 33] |
| 0.004 | 0.644 | 0.00013 | 68.8 | > 10 | 4.9 | 0.085 |  |  | COC[C@H](C(=O)Nc1cccc2c(-c3nc(Nc4ccc(CO)nc4)ncc3F)c[nH]c12)N1CCN(C)CC1 [Example 1, (R)-N-(3-(5-fluoro-2-((6-(hydroxymethyl)pyridin-3-yl)amino)pyrimidin-4-yl)-1H-indol-7-yl)-3-methoxy-2-(4-methylpiperazin-1-yl)propanamide] |
| 0.0051 | 1.83 | 0.00026 | >300 | > 10 | 14.4 | 0.081 |  |  | COC[C@H](C(=O)Nc1cccc2c(-c3nc(Nc4ccnc(C(=O)OC)c4)ncc3F)c[nH]c12)N1CCN(C)CC1 [Example 4, Methyl-(R)-4-((5-fluoro-4-(7-(3-methoxy-2-(4-methylpiperazin-1-yl)propanamido)-1H-indol-3-yl)pyrimidin-2-yl)amino)picolinate] |
| 0.0072 | 3.77 | 0.00017 | 226.4 | > 10 | > 300 | 0.469 |  |  | COC[C@H](C(=O)Nc1cccc2c(-c3nc(Nc4ccc(C(=O)OC)nc4)ncc3F)c[nH]c12)N1CCN(C)CC1 [Example 12, methyl (R)-5-((5-fluoro-4-(7-(3-methoxy-2-(4-methylpiperazin-1-yl)propanamido)-1H-indol-3-yl)pyrimidin-2-yl)amino)picolinate] |
| 0.0072 | 1.39 | 0.00033 | 5.5 | 8.95 | 83.1 | 0.088 |  |  | COC[C@H](C(=O)Nc1cccc2c(-c3nc(Nc4ccc5cn[nH]c5c4)ncc3F)c[nH]c12)N1CCN(C)CC1 [Example 13, (R)-N-(3-(2-((1H-indazol-6-yl)amino)-5-fluoropyrimidin-4-yl)-1H-indol-7-yl)-3-methoxy-2-(4-methylpiperazin-1-yl)propanamide] |
| 0.0073 | 1.44 | 0.00019 | 68.0 | > 10 | > 300 | 0.02 |  |  | COC[C@H](C(=O)Nc1cccc2c(-c3nc(Nc4ccnc(CCC(=O)OC)c4)ncc3F)c[nH]c12)N1CCN(C)CC1 [Example 15, methyl (R)-3-(4-((5-fluoro-4-(7-(3-methoxy-2-(4-methylpiperazin-1-yl)propanamido)-1H-indol-3-yl)pyrimidin-2-yl)amino)pyridin-2-yl)propanoate] |
| 0.0074 | 2 | 0.00036 | 42.1 | > 10 | 3 | 0.138 |  |  | COC[C@H](C(=O)Nc1cccc2c(-c3nc(Nc4ccc(OCCO)nc4)ncc3F)c[nH]c12)N1CCN(C)CC1 [Example 16, (R)-N-(3-(5-fluoro-2-((6-(2-hydroxyethoxy)pyridin-3-yl)amino)pyrimidin-4-yl)-1H-indol-7-yl)-3-methoxy-2-(4-methylpiperazin-1-yl)propanamide] |
| 0.0076 | 1.21 | 0.00018 | 4.5 | 7.74 | 57.2 | 0.043 |  |  | COC[C@H](C(=O)Nc1cccc2c(-c3nc(Nc4ccc5c(C)n[nH]c5c4)ncc3F)c[nH]c12)N1CCN(C)CC1 [Example 17, (R)-N-(3-(5-fluoro-2-((3-methyl-1H-indazol-6-yl)amino)pyrimidin-4-yl)-1H-indol-7-yl)-3-methoxy-2-(4-methylpiperazin-1-yl)propanamide] |
| 0.0188 | 1.26 | 0.00032 |  | > 10 |  | 0.198 |  |  | COCCOc1ccc(Nc2ncc(F)c(-c3c[nH]c4c(NC(=O)[C@@H](COC)N5CCN(C)CC5)cccc34)n2)cn1 [Example 65, (R)-N-(3-(5-fluoro-2-((6-(2-methoxyethoxy)pyridin-3-yl)amino)pyrimidin-4-yl)-1H-indol-7-yl)-3-methoxy-2-(4-methylpiperazin-1-yl)propanamide] |
| 0.0209 | 1.23 | 0.00022 |  | 5.36 |  | 0.071 |  |  | CNC(=O)COc1cncc(Nc2ncc(F)c(-c3c[nH]c4c(NC(=O)[C@@H](COC)N5CCN(C)CC5)cccc34)n2)c1 [Example 68, (R)-N-(3-(5-fluoro-2-((5-(2-(methylamino)-2-oxoethoxy)pyridin-3-yl)amino)pyrimidin-4-yl)-1H-indol-7-yl)-3-methoxy-2-(4-methylpiperazin-1-yl)propanamide] |
